Reference: BindingDB's records for doi:10.1021/jm0496335 (2005)
Several values for one entry are separate records, joined by “and”; a condition that tells them apart may be missing. Identical values can stand only once.

Biological target: Somatostatin receptor type 2 (Mus musculus, UniProt P30875)
Assay: Inhibition of [125I][Leu8,D-Trp22,[…]]somatostatin-28 binding to somatostatin receptor 2

Somatostatin receptor type 2, sequence (P30875 whole entry): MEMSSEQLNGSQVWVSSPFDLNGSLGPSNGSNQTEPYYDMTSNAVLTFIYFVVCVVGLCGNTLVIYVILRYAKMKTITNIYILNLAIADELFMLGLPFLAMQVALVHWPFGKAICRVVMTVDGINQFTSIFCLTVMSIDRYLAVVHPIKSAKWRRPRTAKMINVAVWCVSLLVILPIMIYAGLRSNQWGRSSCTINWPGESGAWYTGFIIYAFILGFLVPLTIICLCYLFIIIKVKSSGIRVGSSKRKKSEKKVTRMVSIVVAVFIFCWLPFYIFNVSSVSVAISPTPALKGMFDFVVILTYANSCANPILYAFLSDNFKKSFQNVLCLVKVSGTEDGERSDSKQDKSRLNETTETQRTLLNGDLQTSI

IC50: 0.46 nM and 2.2 nM
Structure (SMILES): C[C@H](O)[C@@H]1NC(=O)[C@H](CCCCN)NC(=O)[C@@H](Cc2c[nH]c3ccccc23)NC(=O)[C@H](Cc2ccc(O)cc2)NC(=O)[C@@H](NC(=O)[C@@H](Cc2ccccc2)NC(=O)CN2CCN(CC(=O)O)CCN(CC(=O)O)CCN(CC(=O)O)CC2)CSSCC(C(=O)N[C@H](CO)[C@H](C)O)NC1=O (stereo partly specified)
